Test results published in paper PMC2861344 (Neuropharmacology, 2010).
Values belong to the molecule of their own block, whether it stands above or below them.

What was measured:
[1] = molecular target: T1, NR1aNR2A NMDA receptor (NR2A subunit) (Rattus norvegicus, UniProt P35439+Q00959); experiment: whole-cell patch clamp, agonist concentration-response; type: cell-based
[2] = molecular target: T2, NR1aNR2B NMDA receptor (NR2B subunit) (Rattus norvegicus, UniProt P35439+Q00960); experiment: as above; type: cell-based
T2 sequence (Q00960 27-1482, other chains not shown): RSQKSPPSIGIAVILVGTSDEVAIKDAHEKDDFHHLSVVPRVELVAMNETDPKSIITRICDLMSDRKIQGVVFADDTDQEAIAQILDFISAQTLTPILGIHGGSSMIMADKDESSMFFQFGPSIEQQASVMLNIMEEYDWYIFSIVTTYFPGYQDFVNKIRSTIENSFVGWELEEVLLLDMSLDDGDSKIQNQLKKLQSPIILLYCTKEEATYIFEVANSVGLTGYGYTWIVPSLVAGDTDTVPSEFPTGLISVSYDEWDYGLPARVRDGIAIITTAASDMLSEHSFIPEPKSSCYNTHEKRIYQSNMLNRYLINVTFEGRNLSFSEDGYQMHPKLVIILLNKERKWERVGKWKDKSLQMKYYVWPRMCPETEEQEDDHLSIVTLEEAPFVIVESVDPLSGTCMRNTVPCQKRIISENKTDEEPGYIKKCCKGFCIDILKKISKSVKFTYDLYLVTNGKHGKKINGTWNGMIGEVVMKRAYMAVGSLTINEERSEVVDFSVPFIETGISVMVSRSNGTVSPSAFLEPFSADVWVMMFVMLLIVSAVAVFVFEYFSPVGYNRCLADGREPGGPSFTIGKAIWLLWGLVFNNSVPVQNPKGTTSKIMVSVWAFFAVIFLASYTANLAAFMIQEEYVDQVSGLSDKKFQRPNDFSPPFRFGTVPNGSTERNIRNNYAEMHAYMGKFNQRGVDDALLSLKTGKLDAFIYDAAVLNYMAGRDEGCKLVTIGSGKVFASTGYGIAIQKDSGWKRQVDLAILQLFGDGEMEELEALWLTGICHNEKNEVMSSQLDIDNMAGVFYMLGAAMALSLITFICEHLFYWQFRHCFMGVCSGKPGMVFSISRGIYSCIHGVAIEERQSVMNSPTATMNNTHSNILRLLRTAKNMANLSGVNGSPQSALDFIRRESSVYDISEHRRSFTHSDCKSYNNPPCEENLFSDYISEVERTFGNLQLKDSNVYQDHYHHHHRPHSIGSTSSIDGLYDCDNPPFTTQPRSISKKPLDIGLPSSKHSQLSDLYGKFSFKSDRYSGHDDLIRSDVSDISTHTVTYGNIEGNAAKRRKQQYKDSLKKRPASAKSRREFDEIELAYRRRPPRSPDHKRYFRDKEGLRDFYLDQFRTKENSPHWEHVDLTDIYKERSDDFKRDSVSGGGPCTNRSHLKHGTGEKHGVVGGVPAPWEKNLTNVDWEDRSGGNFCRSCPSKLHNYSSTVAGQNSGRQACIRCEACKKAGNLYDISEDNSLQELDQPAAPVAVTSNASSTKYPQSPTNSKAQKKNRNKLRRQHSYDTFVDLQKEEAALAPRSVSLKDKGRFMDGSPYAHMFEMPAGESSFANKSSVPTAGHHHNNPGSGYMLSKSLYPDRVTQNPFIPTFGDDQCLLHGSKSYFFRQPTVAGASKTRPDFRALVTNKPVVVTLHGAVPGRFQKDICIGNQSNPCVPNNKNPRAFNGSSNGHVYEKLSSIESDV

[3] = system: NMDA receptor (native, hippocampal neurons); type: cell-based, Mus musculus
[4] = molecular target: T2, NR1aNR2B NMDA receptor (NR2B subunit); experiment: whole-cell patch clamp, inhibition of EC30 NMDA current; type: cell-based; conditions: read-out: % inhibition at 100 μM
[5] = molecular target: T1, NR1aNR2A NMDA receptor (NR2A subunit); experiment: as above; type: cell-based; conditions: read-out: % inhibition at 100 μM

T1 sequence (Q00959 23-1464, other chains not shown): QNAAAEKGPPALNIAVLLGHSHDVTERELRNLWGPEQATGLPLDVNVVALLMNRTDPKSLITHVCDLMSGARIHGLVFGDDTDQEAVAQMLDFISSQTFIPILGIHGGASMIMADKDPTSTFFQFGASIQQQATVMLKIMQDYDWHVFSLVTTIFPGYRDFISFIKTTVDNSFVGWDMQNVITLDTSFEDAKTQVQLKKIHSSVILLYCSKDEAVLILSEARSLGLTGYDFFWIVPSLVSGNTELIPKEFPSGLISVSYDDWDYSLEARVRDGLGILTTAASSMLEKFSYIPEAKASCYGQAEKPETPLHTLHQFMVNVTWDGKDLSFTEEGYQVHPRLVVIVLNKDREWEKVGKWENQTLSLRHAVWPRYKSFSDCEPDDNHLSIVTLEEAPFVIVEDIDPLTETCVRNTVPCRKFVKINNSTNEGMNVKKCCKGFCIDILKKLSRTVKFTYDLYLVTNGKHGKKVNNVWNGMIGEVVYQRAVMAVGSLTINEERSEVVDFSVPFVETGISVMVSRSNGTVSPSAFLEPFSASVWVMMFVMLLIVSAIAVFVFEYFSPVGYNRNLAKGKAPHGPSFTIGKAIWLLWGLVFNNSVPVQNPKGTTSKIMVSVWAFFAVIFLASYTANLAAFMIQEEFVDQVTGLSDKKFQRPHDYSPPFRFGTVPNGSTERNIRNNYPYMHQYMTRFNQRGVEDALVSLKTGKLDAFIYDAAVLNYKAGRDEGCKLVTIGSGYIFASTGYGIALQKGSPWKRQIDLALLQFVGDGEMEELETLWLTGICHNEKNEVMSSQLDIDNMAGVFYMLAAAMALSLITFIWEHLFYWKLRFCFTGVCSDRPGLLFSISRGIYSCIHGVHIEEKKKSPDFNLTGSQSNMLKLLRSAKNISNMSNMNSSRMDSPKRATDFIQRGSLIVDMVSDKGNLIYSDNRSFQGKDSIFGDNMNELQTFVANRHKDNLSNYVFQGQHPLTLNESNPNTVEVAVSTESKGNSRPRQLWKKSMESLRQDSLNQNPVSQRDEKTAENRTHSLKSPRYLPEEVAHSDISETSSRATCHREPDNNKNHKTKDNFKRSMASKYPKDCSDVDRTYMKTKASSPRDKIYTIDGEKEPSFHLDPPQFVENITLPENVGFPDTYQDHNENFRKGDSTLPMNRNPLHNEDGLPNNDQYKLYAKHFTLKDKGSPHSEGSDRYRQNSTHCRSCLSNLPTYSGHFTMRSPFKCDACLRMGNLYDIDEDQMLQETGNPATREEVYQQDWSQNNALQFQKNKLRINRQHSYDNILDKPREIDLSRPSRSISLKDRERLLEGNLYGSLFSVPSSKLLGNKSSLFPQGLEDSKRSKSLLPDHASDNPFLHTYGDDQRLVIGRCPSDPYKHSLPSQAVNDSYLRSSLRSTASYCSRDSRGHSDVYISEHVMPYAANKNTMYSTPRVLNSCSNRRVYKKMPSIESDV

SMILES: CN[C@H](CC(=O)O)C(=O)O [NMDA]
EC50 [1]: 44 ± 5.6 µM
EC50 [2]: 14 ± 1.3 µM

SMILES: O=c1c(-c2ccc(O)cc2)coc2cc(O)ccc12 [daidzein, 4′,7-dihydroxyisoflavone]
% of control current at 100 μM [3]: 68 ± 1.6

inhibition at 100 µM [4]: 26 ± 2%
inhibition at 100 µM [5]: 20 ± 1.4%
SMILES: O=c1c(-c2ccc(O)cc2)coc2cc(O)cc(O)c12 [genistein]
